For 6 cell lines, relative viability results are on record in the supplement of paper PMC10307832.

Experiment in all cases: relative viability (nuclei count vs DMSO), 5 days (fraction); higher = more cells survive
Compound in one assay: C1=CC(=CC=C1NC(=S)NNC2=C(C=C(C=C2[N+](=O)[O-])C(F)(F)F)[N+](=O)[O-])F [Kobe2602]
A digest of the protocol:
(§1)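 Lung cancer cell lines in 1536-well plates were kept overnight at 37 °C, then pinned with five library-drug doses (not always all listed) spaced by √10 on vehicle-anchored plates. After 5 days without medium change, cells were fixed, permeabilised and Hoechst-stained in one step, imaged at 4×, and nuclei were counted with MetaXpress. Viability is treated-well nuclei divided by vehicle-well nuclei, taken as the median over plates. Plates passed only with control CV below 25% and at least one doubling.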

Compound in the next assay: COc1cc2nccc(Oc3ccc(NC(=O)C4(C(=O)Nc5ccc(F)cc5)CC4)cc3)c2cc1OC [Cabozantinib]
A digest of the protocol: as §1

Compound in a further assay: O[C@@H](COc1cccc2ncccc12)CN1CCN([C@@H]2c3ccccc3[C@@H]3[C@H](c4ccccc42)C3(F)F)CC1 [Zosuquidar]
A digest of the protocol: as §1

Compound in the assay “Cabozantinib + Dasatinib”: COc1cc2nccc(Oc3ccc(NC(=O)C4(C(=O)Nc5ccc(F)cc5)CC4)cc3)c2cc1OC [Cabozantinib] + Cc1nc(Nc2ncc(C(=O)Nc3c(C)cccc3Cl)s2)cc(N2CCN(CCO)CC2)n1 [Dasatinib] (partner 0.075 µM)
A digest of the protocol:
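Values are medians from duplicate plates. Each reflects relative viability, defined as the nuclei count of treated wells over that of vehicle wells. Lung cancer cell lines in 1536-well plates were pin-tool dosed one day after seeding with one drug alone or with a fixed anchor-drug dose plus five library-drug doses (not always all listed) in √10 steps, then fixed, stained and imaged at 4× after 5 days.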

Regarding NCI-H358, the relative viability was determined as 0.993 with Kobe2602 (0.2 µM); 1.03 in the assay with Kobe2602 (0.6325 µM); 0.862 in the assay with Kobe2602 (2 µM); 0.828 in the assay with Kobe2602 (6.325 µM); 0.97 with Kobe2602 (20 µM); 0.936 with Cabozantinib (0.02 µM). For the same cell line, the relative viability stood at 1.02 with Cabozantinib (0.06325 µM); 0.833 with Cabozantinib (0.2 µM); 0.981 with Cabozantinib (0.6325 µM); 0.813 with Cabozantinib (2 µM); 0.959 with Zosuquidar (0.01 µM); 0.914 with Zosuquidar (0.03162 µM). The relative viability in the assay with Zosuquidar (0.1 µM) worked out at 0.871; with Zosuquidar (0.3162 µM), 0.878; with Zosuquidar (1 µM), 0.937; in the assay with Cabozantinib + Dasatinib (first compound 0.02 µM) it was 0.15; with Cabozantinib + Dasatinib (first compound 0.06325 µM) it was 0.194; with Cabozantinib + Dasatinib (first compound 0.2 µM), 0.12. For the same cell line, the relative viability was 0.197 with Cabozantinib + Dasatinib (first compound 0.6325 µM) and 0.19 with Cabozantinib + Dasatinib (first compound 2 µM).

Consider NCI-H441, for which the relative viability in the assay with Kobe2602 (0.2 µM) was 0.973; with Kobe2602 (0.6325 µM), 1.2; with Kobe2602 (2 µM) it was 0.917; with Kobe2602 (6.325 µM) it was 1.04; with Kobe2602 (20 µM), 1.16; with Cabozantinib (0.02 µM), 0.738. Moreover, the relative viability stood at 1.23 in the assay with Cabozantinib (0.06325 µM); 0.96 with Cabozantinib (0.2 µM); 0.793 in the assay with Cabozantinib (0.6325 µM); 0.879 with Cabozantinib (2 µM); 1.14 in the assay with Zosuquidar (0.01 µM); 0.881 with Zosuquidar (0.03162 µM). The relative viability was found to be 0.829 with Zosuquidar (0.1 µM); 1.06 with Zosuquidar (0.3162 µM); 1.17 with Zosuquidar (1 µM); 0.431 with Cabozantinib + Dasatinib (first compound 0.02 µM); 0.704 in the assay with Cabozantinib + Dasatinib (first compound 0.06325 µM); 0.458 in the assay with Cabozantinib + Dasatinib (first compound 0.2 µM). For the same cell line, the relative viability is 0.582 with Cabozantinib + Dasatinib (first compound 0.6325 µM) and 0.51 in the assay with Cabozantinib + Dasatinib (first compound 2 µM).

Turning to NCI-H460, the relative viability in the assay with Kobe2602 (0.2 µM) stood at 1.03; with Kobe2602 (0.6325 µM), 0.955; with Kobe2602 (2 µM), 0.986; with Kobe2602 (6.325 µM), 1.04; with Kobe2602 (20 µM), 0.963; with Cabozantinib (0.02 µM), 1.05. For the same cell line, the relative viability came to 1.06 with Cabozantinib (0.06325 µM); 1.05 in the assay with Cabozantinib (0.2 µM); 0.976 in the assay with Cabozantinib (0.6325 µM); 1.03 with Cabozantinib (2 µM); 0.993 with Zosuquidar (0.01 µM); 0.964 with Zosuquidar (0.03162 µM). Moreover, the relative viability in the assay with Zosuquidar (0.1 µM) amounted to 0.969; with Zosuquidar (0.3162 µM), 1.02; with Zosuquidar (1 µM) it was 0.974; in the assay with Cabozantinib + Dasatinib (first compound 0.02 µM) it was 0.321; with Cabozantinib + Dasatinib (first compound 0.06325 µM) it was 0.607; with Cabozantinib + Dasatinib (first compound 0.2 µM), 0.496. For the same cell line, the values for the relative viability in the assay with Cabozantinib + Dasatinib (first compound 0.6325 µM) and in the assay with Cabozantinib + Dasatinib (first compound 2 µM) were 0.493 and 0.565, respectively.

As for NCI-H520, the relative viability stood at 1.01 in the assay with Kobe2602 (0.2 µM); 1.09 with Kobe2602 (0.6325 µM); 0.966 with Kobe2602 (2 µM); 0.936 in the assay with Kobe2602 (6.325 µM); 0.957 with Kobe2602 (20 µM); 1.05 with Cabozantinib (0.02 µM). Further, the relative viability in the assay with Cabozantinib (0.06325 µM) amounted to 0.959; in the assay with Cabozantinib (0.2 µM), 0.962; with Cabozantinib (0.6325 µM), 0.953; with Cabozantinib (2 µM) it was 0.951; in the assay with Zosuquidar (0.01 µM) it was 0.986; with Zosuquidar (0.03162 µM), 1.04. For the same cell line, the relative viability with Zosuquidar (0.3162 µM) turned out to be 1.08; with Zosuquidar (1 µM) it was 1.05; with Cabozantinib + Dasatinib (first compound 0.02 µM), 0.18; with Cabozantinib + Dasatinib (first compound 0.06325 µM), 0.204; with Cabozantinib + Dasatinib (first compound 0.2 µM), 0.215; with Cabozantinib + Dasatinib (first compound 0.6325 µM) it was 0.201. For the same cell line, the relative viability with Cabozantinib + Dasatinib (first compound 2 µM) came to 0.199.

Consider NCI-H522, for which the relative viability was determined as 1.08 with Kobe2602 (0.2 µM); 1.11 in the assay with Kobe2602 (0.6325 µM); 0.997 with Kobe2602 (2 µM); 0.895 with Kobe2602 (6.325 µM); 0.979 with Kobe2602 (20 µM); 0.863 with Cabozantinib (0.02 µM). In addition, the relative viability with Cabozantinib (0.06325 µM) turned out to be 0.98; with Cabozantinib (0.2 µM) it was 0.897; in the assay with Cabozantinib (0.6325 µM), 0.98; with Cabozantinib (2 µM), 1.15; in the assay with Zosuquidar (0.01 µM), 1.01; with Zosuquidar (0.03162 µM) it was 0.809. For the same cell line, the relative viability with Zosuquidar (0.1 µM) was determined as 0.955; with Zosuquidar (0.3162 µM), 1.06; with Zosuquidar (1 µM) it was 0.907; in the assay with Cabozantinib + Dasatinib (first compound 0.02 µM), 0.726; with Cabozantinib + Dasatinib (first compound 0.06325 µM), 0.898; in the assay with Cabozantinib + Dasatinib (first compound 0.2 µM), 0.93. Also, the relative viability came out at 0.846 with Cabozantinib + Dasatinib (first compound 0.6325 µM) and 1.04 in the assay with Cabozantinib + Dasatinib (first compound 2 µM).

Regarding NCI-H596, the relative viability in the assay with Kobe2602 (0.2 µM) turned out to be 1.02; with Kobe2602 (0.6325 µM), 0.927; with Kobe2602 (2 µM), 1.01; with Kobe2602 (6.325 µM), 0.92; with Kobe2602 (20 µM) it was 1.11; in the assay with Cabozantinib (0.02 µM) it was 1.1. The relative viability with Cabozantinib (0.06325 µM) was found to be 1.17; with Cabozantinib (0.2 µM) it was 1.06; with Cabozantinib (0.6325 µM), 1.01; with Cabozantinib (2 µM) it was 0.983; with Zosuquidar (0.01 µM) it was 1.06; with Zosuquidar (0.03162 µM) it was 0.806. The relative viability with Zosuquidar (0.1 µM) was 1.04; with Zosuquidar (0.3162 µM) it was 1.14; with Zosuquidar (1 µM), 1.04; with Cabozantinib + Dasatinib (first compound 0.02 µM), 0.509; with Cabozantinib + Dasatinib (first compound 0.06325 µM) it was 0.637; with Cabozantinib + Dasatinib (first compound 0.2 µM) it was 0.558. Further, the relative viability with Cabozantinib + Dasatinib (first compound 0.6325 µM) was determined as 0.582; with Cabozantinib + Dasatinib (first compound 2 µM), 0.544.
